Laboratory results published in patent publication US20250049664A1, “SKIN EXTERNAL APPLICATION COMPOSITION FOR SKIN BARRIER STRENGTHENING OR SKIN MOISTURIZING CONTAINING DEHYDROABIETIC ACID” (AMOREPACIFIC CORPORATION, priority 2018, published 2025).
Values belong to the compound of their own block, whether it stands above or below them.

Assays:
Assay type in all cases: cell-based, human
[1] = system: filaggrin gene; test: Quantitative RT-PCR of filaggrin gene expression in HaCaT cells; settings: for Gene expression level (fold) Filaggrin: 24 hours, relative mRNA level vs ethanol negative control as 1
Protocol: (§1) HaCaT cells were cultured in Dulbecco's modified Eagle's medium (DMEM, GIBCO 1210-0038) containing 10% fetal bovine serum. 1×10^6 cells were placed in a […] flask and cultured for 24 hours. Then, after treating with DMEM not containing fetal bovine serum and culturing for 24 hours, the cells were treated with dehydroabietic acid in a medium not containing fetal bovine serum for 24 hours. Then, after harvesting the cells and washing with cooled phosphate-buffered saline (PBS), total RNA was extracted by adding 1 mL of TRIzolTM reagent (Life Technologies, Inc.). Then, quantitative reverse transcriptase PCR was conducted. The primer sequences of PPARα. TGase 1, filaggrin and HAS 2 used to conduct PCR are described in Table 2. After adding 4 μg of total RNA to 25 μL of a reverse transcription buffer containing 50 mM Tris-HCl (pH 8.3), 75 mM KCl, 3 mM MgCl^2, 0.1 M DTT, 10 mM dNTP and 40 units/μL RNase inhibitor, 0.5 μg/μL oligo (dT)16 primer and 200 units of SuperScript II (GIBCO BRL) were added and incubation was conducted at 42° C. for 1 hour. Then, after mixing 2.5 μL of the reverse transcription solution with a 50 µL of a PCR buffer containing AmpliTaq DNA polymerase (0.04U, Perkin Elmer, Shelton, CT), 50 mM Tris (pH 8.3), 0.25 mg/mL bovine serum albumin, 3 mM MgCl2, 0.25 mM dNTPs and a 1/50,000 diluted solution of SYBR Green I (Molecular Probes, Eugene, OR), 10 μM of primers were added and PCR was conducted for 30 cycles of 30 seconds at 94° C., 30 seconds at 53°° C. and 1 minute at 72° C. Relative mRNA level was analyzed by measuring the change in the fluorescence of SYBR Green I using the ICycler software. WY14643, which is a PPARα ligand, was used as a positive control group. The relative mRNA level was represented relative to an ethanol-treated negative control group as 1. […] WY14643 is a PPARα ligand reported to induce keratinocyte differentiation and strengthen skin barrier.

[2] = biological target: T1, PPARα (Mus musculus, UniProt P23204); test: PPARα activation, PPRE-luciferase reporter assay in transfected HaCaT cells; settings: 10 μM; for PPARα activation (%): 24 hours, luciferase activity relative to ethanol negative control (100)
T1 construct: expressed in transfected cells; host or cells: HaCaT (human keratinocytes), transiently transfected
T1 sequence (P23204 1-468): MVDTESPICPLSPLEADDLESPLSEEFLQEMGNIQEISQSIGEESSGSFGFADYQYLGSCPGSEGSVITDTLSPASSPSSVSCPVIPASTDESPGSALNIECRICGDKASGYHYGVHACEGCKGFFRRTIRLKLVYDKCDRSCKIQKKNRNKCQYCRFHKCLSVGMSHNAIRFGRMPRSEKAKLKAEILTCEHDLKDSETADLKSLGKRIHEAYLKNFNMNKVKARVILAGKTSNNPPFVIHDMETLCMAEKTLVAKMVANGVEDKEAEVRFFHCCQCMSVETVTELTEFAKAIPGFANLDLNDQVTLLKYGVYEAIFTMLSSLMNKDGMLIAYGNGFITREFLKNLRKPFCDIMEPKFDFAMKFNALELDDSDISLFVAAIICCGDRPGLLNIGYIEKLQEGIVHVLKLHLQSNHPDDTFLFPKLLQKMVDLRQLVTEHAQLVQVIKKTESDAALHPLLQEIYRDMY
Source text: HaCaT cells, which are human keratinocytes, were subcultured in DMEM containing 10% fetal bovine serum. A phenol red-free medium was used to avoid the effect of phenol red on estrogen. The following plasmids were used: a plasmid having the PPARα gene downstream of a universal promoter which is expressed in general culture conditions; a plasmid having a PPAR response element (PPRE) activated by binding with ligand-bound PPAR as a promoter and a firefly luciferase gene reporter downstream of the promoter; and a reference plasmid having a β-galactosidase gene bound to a universal promoter [Kliewer, S. A., Forman, B. M., Blumberg, B., Ong, […]., Evans, R. M., Differential expression and activation of a family of murine peroxisome proliferator-activated receptors, Proc. Natl. Acad. Sci. USA, 91 (1994) 7355-7359.]. The HaCaT cells were seeded onto a 24-well plate at a density of 5×10^4 cells/well, cultured for 24 hours, and then transiently transfected with the plasmid genes. After 24 hours of culturing, followed by washing with phosphate-buffered saline (PBS), the ells were treated with dehydroabietic acid of Chemical Formula 1 purchased from Ramidus AB or WY14643, which is a PPARα ligand, as a positive control group at 10 μM. WY14643 is reported as a PPARα ligand which induces keratinocyte differentiation and strengthens skin barrier. A negative control group was treated with ethanol. After 24 hours of culturing, followed by washing with PBS, the cells were harvested and luciferase activity was measured. […] The result for each treatment group was represented relative to that of the negative control group.

[3] = system: PPARα gene; test: Quantitative RT-PCR of PPARα gene expression in HaCaT cells; settings: for Gene expression level (fold) PPARα: 24 hours, relative mRNA level vs ethanol negative control as 1
Protocol: as §1

[4] = system: transglutaminase 1 (TGase 1) gene; test: Quantitative RT-PCR of TGase 1 gene expression in HaCaT cells; settings: for Gene expression level (fold) TGase1: 24 hours, relative mRNA level vs ethanol negative control as 1
Protocol: as §1

[5] = system: hyaluronic acid synthase 2 (HAS 2) gene; test: Quantitative RT-PCR of HAS 2 gene expression in HaCaT cells; settings: for Gene expression level (fold) HAS 2: 24 hours, relative mRNA level vs ethanol negative control as 1
Protocol: as §1

PPARα activation (%) [2]: 291.5%
PPARα activation (luciferase activity), result in words ([2]; compared with WY14643 positive control): induced PPARα activation
Compound: CC(C)c1ccc2c(c1)CC[C@H]1[C@](C)(C(=O)O)CCC[C@]21C [Dehydroabietic acid, dehydroabietic acid]
Gene expression level (fold) Filaggrin ([1]; 1 μM): 2.31 fold
Gene expression level (fold) Filaggrin ([1]; 10 μM): 3.34 fold
Expression of the filaggrin gene, result in words ([1]; treatment for 24 hours): significantly increased
Gene expression level (fold) PPARα ([3]; 1 μM): 2.65 fold
Gene expression level (fold) PPARα ([3]; 10 μM): 6.16 fold
Expression of the PPARα gene, result in words ([3]; treatment for 24 hours): significantly increased
Gene expression level (fold) TGase1 ([4]; 1 μM): 2.58 fold
Gene expression level (fold) TGase1 ([4]; 10 μM): 5.94 fold
Expression of the transglutaminase 1 (TGase 1) gene, result in words ([4]; treatment for 24 hours): significantly increased
Gene expression level (fold) HAS 2 ([5]; 1 μM): 12.4 fold
Gene expression level (fold) HAS 2 ([5]; 10 μM): 40.15 fold
Expression of the hyaluronic acid synthase 2 (HAS 2) gene, result in words ([5]; treatment for 24 hours): significantly increased

PPARα activation (%) [2]: 286.9%
Compound: Cc1cccc(Nc2cc(Cl)nc(SCC(=O)O)n2)c1C [WY14643, reference compound]
Gene expression level (fold) Filaggrin ([1]; 1 μM): 1.86 fold
Gene expression level (fold) Filaggrin ([1]; 10 μM): 3.12 fold
Gene expression level (fold) PPARα ([3]; 1 μM): 2.54 fold
Gene expression level (fold) PPARα ([3]; 10 μM): 5.96 fold
Gene expression level (fold) TGase1 ([4]; 1 μM): 2.13 fold
Gene expression level (fold) TGase1 ([4]; 10 μM): 4.98 fold
Gene expression level (fold) HAS 2 ([5]; 1 μM): 9.64 fold
Gene expression level (fold) HAS 2 ([5]; 10 μM): 35.93 fold
